# Measurements taken from ChEMBL document CHEMBL5441456, “ASAP - SARS-CoV-2 nsp3 macrodomain dose response” (2024).
# pIC50: −log10 of the molar value. “And” between values parts separate entries of the source, which are not always exact repeats. Equal entries are not always repeated.
# Biological target: Replicase polyprotein 1ab (Severe acute respiratory syndrome coronavirus 2, UniProt P0DTD1)
# Experiment: Functional biochemical assay to identify treatments for viral infectious disease that targets SARS-COV-2 nsp3 macrodomain, whereby the mechanism of action displaces an ADP-Ribose modified peptide from the binding site. Utilizing a time-resolved fluorescence method to measure binding by reading the emitted fluorescence intensity in two wavelengths.
Structure (SMILES),pIC50,IC50
O[C@H]1C[C@](CNc2ncnc3[nH]ccc23)(c2ccccc2)C1,< 3.91,–
O=C(OCc1ccc(Cl)nc1)c1ncnc2[nH]ccc12,< 4.00,–
Cc1cccc(Cl)c1-n1sc(=O)n(CC2CC2)c1=O,4.64,–
O=C(c1ccccc1)N1CCC(c2ccn3ncc(C(=O)N4CCc5nc[nH]c5C4)c3c2)CC1,< 4.00,–
O=C(O)c1cnc(C(=O)N2CCC(c3ccn4ncc(C(=O)N5CCCCC5)c4c3)CC2)cn1,< 4.00,–
OC[C@@]1(Cc2ccc(F)cc2)CCN(c2ncnc3[nH]ccc23)C1,< 4.00,–
O=C(OCc1cccc(Cl)n1)c1ncnc2[nH]ccc12,< 3.91,–
O=C(Nc1cnc2[nH]ncc2c1)C1CCN(c2ccc3nncn3n2)CC1,< 3.91,–
CC(C)[C@@H](Nc1ncnc2[nH]ccc12)c1nc2ccccc2[nH]1,4.02,–
FC(F)(F)CO[C@@H]1CCCN(c2ncnc3[nH]ccc23)C1,< 3.91,–
Cc1[nH]c2ncnc(NCc3ccco3)c2c1C,< 4.00,–
O=C(c1c[nH]c(=O)cn1)N1CCC(c2ccn3ncc(C(=O)N4CCCCC4)c3c2)CC1,4.11,–
O=C(OCc1ncccc1Cl)c1ncnc2[nH]ccc12,< 4.00,–
O=C(N[C@@H](C(=O)O)C1Cc2ccccc2C1)c1ncnc2[nH]ccc12,< 4.00,–
O=C(c1ncc[nH]1)N1CCC(c2ccn3ncc(C(=O)N4CCCCC4)c3c2)CC1,< 4.00,–
Cc1[nH]c2ncnc(NC(=O)c3ncn(-c4ccccc4)n3)c2c1C,< 4.00,–
Brc1ccc(-n2nnnc2Sc2ncnc3[nH]ccc23)cc1,< 3.91,–
Cc1nc(C)c(CC(=O)Nc2cnc3[nH]ncc3c2)c(=O)[nH]1,< 4.00,–
Cc1ccc2snc(C(=O)N(C)CC[C@@H](Nc3ncnc4[nH]ccc34)C(C)C)c2c1,< 4.00,–
O=C(O)c1sccc1C(=O)N1CCC(c2ccn3ncc(C(=O)N4CCCCC4)c3c2)CC1,4.42,–
CC(C)[C@H]1N(c2ncnc3[nH]ccc23)CC12CCOCC2,< 4.00,–
Cc1ncnc2c1C[C@@H](C(=O)N(C)CC[C@@H](Nc1ncnc3[nH]ccc13)C(C)C)CC2,< 4.00,–
O=C(c1cn2ncccc2n1)N1CCC(c2ccn3ncc(C(=O)N4CCCCC4)c3c2)CC1,< 4.00,–
Cc1[nH]c2ncnc(NC(=O)[C@@H]3CCO[C@@H]3C)c2c1C,3.91,–
C[C@@H](CO)Nc1ncnc2[nH]c(C(=O)OC(C)(C)C)cc12,< 3.91,–

Structure (SMILES),pIC50,IC50
Cc1nc2ccc(C(=O)N(C)CC[C@@H](Nc3ncnc4[nH]ccc34)C(C)C)cc2s1,< 4.00,–
O=C(NCc1cc2n(n1)CCCC2)c1cc2cncnc2[nH]1,< 3.91,–
O=C(N[C@@H](C(=O)O)c1ccc2c(c1)CCO2)c1ncnc2[nH]ccc12,4.11 and 4.13,–
O=C(Nc1ccccc1)Nc1ccc(C(=O)NC2c3cccc(O)c3CC2C(=O)O)cc1 (stereo not drawn),–,1.02 µM and 1.06 µM and 650 nM and 440 nM (3×) and 535 nM and 555 nM and 628 nM and 598 nM and 632 nM (2×) and 644 nM and 653 nM (2×) and 470 nM and 462 nM and 430 nM and 474 nM and 540 nM and 599 nM and 592 nM and 435 nM and 316 nM and 338 nM and 701 nM and 439 nM and 411 nM and 374 nM (2×) and 353 nM (2×) and 447 nM and 847 nM and 925 nM and 461 nM and 794 nM and 731 nM and 432 nM and 1.1 µM and 317 nM and 406 nM and 649 nM and 516 nM and 384 nM and 402 nM and 289 nM and 506 nM and 262 nM and 224 nM
Cc1cccc(C)c1-n1nnnc1CSc1ncnc2[nH]cnc12,< 4.00,–
CO[C@@H]1CCCN(C(=O)c2cnn3ccc(C4CCN(C(=O)c5ccccc5)CC4)cc23)C1,< 4.00,–
CC(C)[C@@H]1C(=O)NCCN1c1ncnc2[nH]ccc12,4.45,–
CC(C)[C@@H](Nc1ncnc2[nH]ccc12)C(N)=O,4.51,–
CC(C)(NC(=O)c1ncnc2[nH]ccc12)c1cc(C(=O)O)[nH]n1,< 4.00,–
O=C(O)c1ccc(C(=O)N2CCC(c3ccn4ncc(C(=O)N5CCCCC5)c4c3)CC2)o1,4.17,–
C=CCn1c(Sc2ncnc3[nH]ccc23)nc2sccc2c1=O,< 4.00,–
O=C(N[C@H]1CCC[C@H]1C(=O)O)c1cnn2ccc(C3CCN(C(=O)c4ccccc4)CC3)cc12,4.45,–
CC[C@@H]1C[C@@H](C(=O)Nc2ncnc3[nH]c(C)c(C)c23)CCO1,< 3.91,–
Cc1nccc(C(=O)N2CCC(c3ccn4ncc(C(=O)N5CCCCC5)c4c3)CC2)n1,< 4.00,–
CC(C)OCCNC(=O)c1cc2c(=O)n3ccccc3nc2n1C,< 3.91,–
Cc1csc(NC(=O)CSC[C@@H](NC(=O)c2ncnc3[nH]ccc23)C(=O)O)n1,< 4.00,–
O=C(Nc1ccc(C(=O)NCc2c(C(=O)O)[nH]c3ccccc23)cc1)NC1CC1,4.86,–
NS(=O)(=O)c1ccccc1CNc1ncnc2[nH]ccc12,< 3.91,–
Cc1n[nH]c(C)c1C(=O)N1CCC(c2ccn3ncc(C(=O)N4CCCCC4)c3c2)CC1,< 4.00,–
O=C(c1nnn[nH]1)N1CCC(c2ccn3ncc(C(=O)N4CCCCC4)c3c2)CC1,4.55,–
O=C(c1cnc[nH]1)N1CCC(c2ccn3ncc(C(=O)N4CCCCC4)c3c2)CC1,< 4.00,–
c1ccc(-c2cc(CNc3ncnc4[nH]ccc34)on2)cc1,< 3.91,–
O=C(CCN(Cc1cccc(Cl)c1)C(=O)c1ccc(F)cn1)N1CCNCC1,< 4.00,–
O=C(c1cccnc1S)N1CCC(c2ccn3ncc(C(=O)N4CCCCC4)c3c2)CC1,4.21,–
O=C(c1cc(O)ccn1)N1CCC(c2ccn3ncc(C(=O)N4CCCCC4)c3c2)CC1,< 4.00,–

Structure (SMILES),pIC50,IC50
CC(C)[C@@H](CCN(C)C(=O)c1cc2nccnc2cc1F)Nc1ncnc2[nH]ccc12,< 4.00,–
OC[C@@H](Nc1ncnc2[nH]c(I)cc12)c1ccccc1,< 3.91,–
CC(C)[C@@H](Nc1ncnc2[nH]ccc12)c1cccs1,4.83,–
Cn1cc([C@@H](Nc2ncnc3[nH]ccc23)C2CCC2)cn1,4.82,–
Cc1cc(NCc2cnc3c(c2)NC(=O)CO3)cnc1C,< 3.91,–
Cc1n[nH]nc1C(=O)N1CCC(c2ccn3ncc(C(=O)N4CCCCC4)c3c2)CC1,< 4.00,–
COc1ccccc1C[C@@H](Nc1ncnc2[nH]ccc12)C(C)C,4.01,–
O=C(O)c1ccsc1C(=O)N1CCC(c2ccn3ncc(C(=O)N4CCCCC4)c3c2)CC1,4.23,–
CC(C)[C@@H](Nc1ncnc2[nH]ccc12)C(F)F,4.82,–
Cc1nc(C(=O)N2CCC(c3ccn4ncc(C(=O)N5CCCCC5)c4c3)CC2)c(=O)[nH]c1C,< 4.00,–
c1cc(-c2nnc(Sc3ncnc4[nH]ccc34)[nH]2)ccn1,< 3.91,–
CC(C)c1c[nH]nc1NC(=O)c1ccc(NC(=O)Nc2ccccc2)cc1,< 4.00,–
CC(C)[C@@H](Nc1ncnc2n[nH]cc12)c1cnn(C)c1,4.37,–
O=C(c1cccc(Br)c1)N1CCC(c2ccn3ncc(C(=O)N4CCCCC4)c3c2)CC1,< 3.91,–
Cn1nc(C(=O)O)cc1C(=O)N1CCC(c2ccn3ncc(C(=O)N4CCCCC4)c3c2)CC1,< 4.00,–
Cn1nc(C(=O)N2CCC(c3ccn4ncc(C(=O)N5CCCCC5)c4c3)CC2)cc1C(=O)O,4.18,–
Cc1ccc(-c2n[nH]cc2CNc2cnc3[nH]ncc3c2)o1,< 3.91,–
Cn1ncc2c(NCc3ncccc3O)ncnc21,< 3.91,–
O=C(c1ccccc1)N1CCC(c2ccn3ncc(C(=O)N4CCCC[C@H](O)C4)c3c2)CC1,< 4.00,–
CC(=O)Nc1ccc(S(=O)(=O)NNc2ncnc3sccc23)cc1,< 4.00,–
CC(C)[C@@H](CCN(C)C(=O)c1nn(C)c2ccc(F)cc12)Nc1ncnc2[nH]ccc12,< 4.00,–
O=C(O)[C@H]1CCCCCN1C(=O)c1ncnc2[nH]ccc12,< 3.91,–
Cc1[nH]c2ncnc(NC(=O)CCc3ccccc3)c2c1C,< 4.00,–
